Source: patent publication US20090099140A1, “20-Alkyl, Gemini Vitamin D3 Compounds and Methods of Use Thereof” (BioXell S.p.A., priority 2005, published 2009)

Assays:
[1] = tested on: female C57BL/6 mice; assay: Determination of maximum tolerated dose (MTD), highest oral dose without hypercalcemia (serum calcium); format: in vivo; conditions: eight week-old female C57BL/6 mice, p.o. daily for four days in miglyol; highest dose without hypercalcemia (serum calcium >10.7 mg/dl) on day five
Experimental: (§1) The maximum tolerated dose of the vitamin D3 compounds of the invention were determined in eight week-old female C57BL/6 mice (3 mice/group) dosed orally (0.1 ml/mouse) with various concentrations of Vitamin D3 analogs daily for four days. Analogs were formulated in miglyol for a final concentration of 10, 30, 100 and 300 μg/kg when given at 0.1 ml/mouse p.o. daily. Blood for serum calcium assay was drawn by tail bleed on day five, the final day of the study. Serum calcium levels were determined using a colorimetric assay (Sigma Diagnostics, procedure no. 597). The highest dose of analog tolerated without inducing hypercalcemia (serum calcium >10.7 mg/dl) was taken as the maximum tolerated does (MTD).

[2] = tested on: IFN-γ production; assay: IFN-γ production by allogeneic T cell activation in the mixed leukocyte response (MLR); format: cell-based; conditions: MLR of allogeneic PBMC from 2 different donors, 5 days, IFN-γ by ELISA, 50% inhibition of IFN-γ production
Experimental: Immature dendritic cells (DC) were prepared as described in Romani, N. et al., J. Immunol. Meth. 196:137. IFN-γ production by allogeneic T cell activation in the mixed leukocyte response (MLR) was determined as described in Penna, G., et al., J. Immunol., 164: 2405-2411 (2000).
Briefly, peripheral blood mononuclear cells (PBMC) were separated from buffy coats by Ficoll gradient and the same number (3×105) of allogeneic PBMC from 2 different donors were co-cultured in 96-well flat-bottom plates. After 5 days, IFN-γ production in the MLR assay was measured by ELISA and the results expressed as amount (nM) of test compound required to induce 50% inhibition of IFN-γ production (IC50) (Table 1).

[3] = Determination of maximum tolerated dose (MTD), highest oral dose without hypercalcemia (serum calcium); format: in vivo; conditions: mouse, in vivo, po; eight week-old female C57BL/6 mice, p.o. daily for four days in miglyol; highest dose without hypercalcemia (serum calcium >10.7 mg/dl) on day five; read-out: MTD (mice)
Experimental: as §1

Row | Molecule | MTD (mice) [1] [mg/kg] | IC50 [2] [pM] | MTD at 4 days [3] [mg/kg] | IC50 ([2]; 120 h) [pM]
1 | 1α-Fluoro-25-hydroxy-20S-20-(4-hydroxy-5,5,5-trideutero-4-trideuteromethyl-pentyl)-23E-ene-26,27-hexafluorocholecalciferol [Compound 21] | 0.01 | 7.1 |  | 
2 | C=C1/C(=C\C=C2/CCC[C@@]3(C)C2CC[C@@H]3[C@](C)(CC#CC(O)(C(F)(F)F)C(F)(F)F)CCCC(C)(C)O)CC(O)C[C@@H]1F (stereo partly drawn) [Compound 13, (20S)-1α-Fluoro-25-hydroxy-20-(5,5,5-trifluoro-4-hydroxy-4-trifluoromethyl-pent-2-ynyl)-cholecalciferol] |  |  | 0.1 | 358
3 | C=C1/C(=C\C=C2/CCC[C@@]3(C)C2CC[C@@H]3[C@](C)(C/C=C\C(O)(C(F)(F)F)C(F)(F)F)CCCC(C)(C)O)CC(O)C[C@@H]1F (stereo partly drawn) [Compound 14, (20S)-1α-Fluoro-25-hydroxy-20-[(2Z)-5,5,5-trifluoro-4-hydroxy-4-trifluoromethyl-pent-2-enyl]-cholecalciferol] |  |  | 0.1 | 1010
4 | C=C1/C(=C\C=C2/CCC[C@@]3(C)C2CC[C@@H]3[C@](C)(C/C=C/C(O)(C(F)(F)F)C(F)(F)F)CCCC(C)(C)O)CC(O)C[C@@H]1F (stereo partly drawn) [Compound 15, (20S)-1α-Fluoro-25-hydroxy-20-[(2E)-5,5,5-trifluoro-4-hydroxy-4-trifluoromethyl-pent-2-enyl]-cholecalciferol] |  |  | 0.01 | 119
5 | [2H]C([2H])([2H])C(O)(CCC[C@@](C)(C/C=C\C(O)(C(F)(F)F)C(F)(F)F)[C@H]1CCC2/C(=C/C=C3/C[C@@H](O)C[C@H](O)C3=C)CCC[C@@]21C)C([2H])([2H])[2H] (stereo partly drawn) [Compound 16, 1,25-Dihydroxy-20S-20-(4-hydroxy-5,5,5-trideutero-4-trideuteromethyl-pentyl)-23Z-ene-26,27-hexafluorocholecalciferol] |  |  | 0.0003 | 11.1
6 | [2H]C([2H])([2H])C(O)(CCCC(C)(C/C=C\C(O)(C(F)(F)F)C(F)(F)F)[C@H]1CCC2/C(=C/C=C3C[C@@H](O)C[C@H](O)C3)CCC[C@@]21C)C([2H])([2H])[2H] (stereo partly drawn) [Compound 17, 1,25-Dihydroxy-20S-20-(4-hydroxy-5,5,5-trideutero-4-trideuteromethyl-pentyl)-23Z-ene-26,27-hexafluoro-19-nor-cholecalciferol] |  |  | 0.0003 | 2.5
7 | [2H]C([2H])([2H])C(O)(CCCC(C)(C/C=C\C(O)(C(F)(F)F)C(F)(F)F)[C@H]1CCC2/C(=C/C=C3/C[C@@H](O)C[C@H](F)C3=C)CCC[C@@]21C)C([2H])([2H])[2H] (stereo partly drawn) [Compound 18, 1α-Fluoro-25-hydroxy-20S-20-(4-hydroxy-5,5,5-trideutero-4-trideuteromethyl-pentyl)-23Z-ene-26,27-hexafluorocholecalciferol] |  |  | 0.1 | 219
8 | [2H]C([2H])([2H])C(O)(CCC[C@@](C)(CC#CC(O)(C(F)(F)F)C(F)(F)F)[C@H]1CCC2/C(=C/C=C3/C[C@@H](O)C[C@H](F)C3=C)CCC[C@@]21C)C([2H])([2H])[2H] (stereo partly drawn) [Compound 24, 1α-Fluoro-25-hydroxy-20S-20-(4-hydroxy-5,5,5-trideutero-4-trideuteromethyl-pentyl)-23-yne-26,27-hexafluorocholecalciferol] |  |  | 0.01 | 21.3
9 | [2H]C([2H])([2H])C(O)(CCC[C@](C)(C/C=C\C(O)(C(F)(F)F)C(F)(F)F)[C@H]1CCC2/C(=C/C=C3/C[C@@H](O)C[C@H](O)C3=C)CCC[C@@]21C)C([2H])([2H])[2H] (stereo partly drawn) [Compound 25, 1,25-Dihydroxy-20R-20-(4-hydroxy-5,5,5-trideutero-4-trideuteromethyl-pentyl)-23Z-ene-26,27-hexafluorocholecalciferol] |  |  | 0.003 | 1
